Results as given in paper PMC7559897, “Designed Antimicrobial Peptides Against Trauma-Related Cutaneous Invasive Fungal Wound Infections” (Journal of Fungi, 2020).
In brackets after ≈: the same amount, converted by molar mass. Bridge positions count the residues as written; N and C are the ends. Square brackets hold non-standard residues; d marks the D form. Ends that are not written are not given here. Peptide text beside a SMILES is read from it. Orn = NCCC[C@H](N)C(=O)O

Tests used:
[1] = system: Absidia corymbifera NRRL 6251; type: cell-based; settings: NRRL 6251, 24 h
Protocol: (§1) Assays were performed by Trideum Biosciences (Frederick, MD, USA). Isolates were thawed from −80 °C storage and sub-cultured on trypticase soy agar plates at 37 °C prior to experimentation. A single colony was aseptically picked from the agar plate and released in 30 mL trypticase soy broth and incubated overnight at 37 °C incubator. Following which the bacterial culture was diluted to approximately 10^6 colony forming units (CFU)/mL using 2X cation adjusted Mueller–Hinton broth and added to the dAMP solutions (0, 2, 4, 8, 16, 32, 64, and 128 μg/mL) which had been formulated in water at 256 μg/mL and then serially diluted in media on 96-well pates. For fungal evaluation, potato dextrose broth and potato dextrose agar plates were used. The treated cultures were then incubated for 24 h at 37 °C and pathogen growth was measured by absorbance at 600 nm. Four replicas were included for each dAMP concentration. Each MIC was assigned to the lowest test agent concentration resulting in at least three out of four wells showing no growth based on an optical density (OD) reading of <0.1.

[2] = system: Aspergillus fumigatus 9651; type: cell-based; settings: 9651, 24 h
Protocol: as §1

[3] = system: Candida parapsilosis Y-1761; type: cell-based; settings: Y-1761, 24 h
Protocol: as §1

[4] = system: Aspergillus fumigatus 9648; type: cell-based; settings: 9648, 24 h
Protocol: as §1

S. epidermis ATCC 51625 = type: cell-based; settings: ATCC 51625, 24 h
Protocol: as §1

E. cloacae 6054 = type: cell-based; settings: 6054, 24 h
Protocol: as §1

[5] = system: Aspergillus flavus MYA-1004; type: cell-based; settings: 24 h
Protocol: as §1

Candida krusei Y-27825 = type: cell-based; settings: Y-27825, 24 h
Protocol: as §1

E. cloacae 6053 = type: cell-based; settings: 6053, 24 h
Protocol: as §1

Candida albicans Y-6359 = type: cell-based; settings: Y-6359, 24 h
Protocol: as §1

Candida krusei Y-27803 = type: cell-based; settings: Y-27803, 24 h
Protocol: as §1

[6] = system: Fusarium solani NRRL 28548; type: cell-based; settings: NRRL 28548, 24 h
Protocol: as §1

[7] = system: Candida parapsilosis Y-1763; type: cell-based; settings: Y-1763, 24 h
Protocol: as §1

[8] = system: Aspergillus flavus MYA-3651; type: cell-based; settings: 24 h
Protocol: as §1

Candida albicans Y-326 = type: cell-based; settings: Y-326, 24 h
Protocol: as §1

[9] = system: Mucor circinelloides NRRL 3631; type: cell-based; settings: NRRL 3631, 24 h
Protocol: as §1

K. pneumonia 6069 = type: cell-based, Klebsiella pneumoniae; settings: 24 h
Protocol: as §1

K. pneumonia ATCC 10031 = type: cell-based, Klebsiella pneumoniae; settings: ATCC 10031, 24 h
Protocol: as §1

S. aureus B-767 = type: cell-based, Staphylococcus aureus; settings: B-767, 24 h
Protocol: as §1

MRSA ATCC 33592 = type: cell-based, Staphylococcus aureus; settings: ATCC 33592, 24 h
Protocol: as §1

S. aureus 6061 = type: cell-based, Staphylococcus aureus; settings: 6061, 24 h
Protocol: as §1

MRSA 6313 = type: cell-based, Staphylococcus aureus; settings: 6313, 24 h
Protocol: as §1

MRSA 6381 = type: cell-based, Staphylococcus aureus; settings: 6381, 24 h
Protocol: as §1

A. baumannii 6838 = type: cell-based, Acinetobacter baumannii; settings: 6838, 24 h
Protocol: as §1

A. baumannii 6043 = type: cell-based, Acinetobacter baumannii; settings: 6043, 24 h
Protocol: as §1

A. baumannii ATCC 17978 = type: cell-based, Acinetobacter baumannii; settings: ATCC 17978, 24 h
Protocol: as §1

P. aeruginosa ATCC 19660 = type: cell-based, Pseudomonas aeruginosa; settings: ATCC 19660, 24 h
Protocol: as §1

P. aeruginosa 6186 = type: cell-based, Pseudomonas aeruginosa; settings: 6186, 24 h
Protocol: as §1

P. aeruginosa ATCC 27853 = type: cell-based, Pseudomonas aeruginosa; settings: ATCC 27853, 24 h
Protocol: as §1

[10] = system: vulvovaginal candidiasis infection; settings: rats with vulvovaginal candidiasis, oral; cited from earlier work
Source text: The dAMPs RP504, RP554 and RP557 were thus tested for their ability to treat a rodent vulvovaginal candidiasis infection. […] A daily dose with a 2% concentration lowered the CFU/sample by more than 4 logs compared to the con ...

Compound | MIC against Absidia corymbifera NRRL 6251 [1] [µg/mL] | MIC against Aspergillus fumigatus 9651 [2] [µg/mL] | MIC against Candida parapsilosis Y-1761 [3] [µg/mL] | MIC against Aspergillus fumigatus 9648 [4] [µg/mL] | MIC against S. epidermis ATCC 51625 (S. epidermis ATCC 51625) [µg/mL] | MIC against E. cloacae 6054 (E. cloacae 6054) [µg/mL] | MIC against Aspergillus flavus MYA-1004 [5] [µg/mL] | MIC against Candida krusei Y-27825 (Candida krusei Y-27825) [µg/mL] | MIC against E. cloacae 6053 (E. cloacae 6053) [µg/mL] | MIC against Candida albicans Y-6359 (Candida albicans Y-6359) [µg/mL] | MIC against Candida krusei Y-27803 (Candida krusei Y-27803) [µg/mL] | MIC against Fusarium solani NRRL 28548 [6] [µg/mL] | MIC against Candida parapsilosis Y-1763 [7] [µg/mL] | MIC against Aspergillus flavus MYA-3651 [8] [µg/mL] | MIC against Candida albicans Y-326 (Candida albicans Y-326) [µg/mL] | MIC against Mucor circinelloides NRRL 3631 [9] [µg/mL] | MIC against K. pneumonia 6069 (K. pneumonia 6069) [µg/mL] | MIC against K. pneumonia ATCC 10031 (K. pneumonia ATCC 10031) [µg/mL] | MIC against S. aureus B-767 (S. aureus B-767) [µg/mL] | MIC against MRSA ATCC 33592 (MRSA ATCC 33592) [µg/mL] | other results
CSCC[C@@H]1NC(=O)[C@H](C(C)C)NC(=O)[C@H](C(C)C)NC(=O)[C@H](CC(C)C)NC(=O)[C@H](Cc2c[nH]c3ccccc23)NC(=O)[C@H](C(C)C)NC(=O)[C@@H](NC(=O)[C@H](Cc2c[nH]c3ccccc23)NC(=O)[C@@H](N)CCCNC(=N)N)CSSC[C@@H](C(=O)N[C@@H](CCCCN)C(=O)N[C@@H](CCCCN)C(N)=O)NC1=O [RP513] (H-RWCVWLVVMCKK-NH2; disulfide 3-10) | 32 (≈ 20.7 µM) | >128 | >128 | 128 (≈ 82.7 µM) | >128 | >128 | >128 | 64 (≈ 41.3 µM) | >128 | 64 (≈ 41.3 µM) | 64 (≈ 41.3 µM) | 16 (≈ 10.3 µM) | >128 | 128 (≈ 82.7 µM) | 64 (≈ 41.3 µM) | 32 (≈ 20.7 µM) | 128 (≈ 82.7 µM) | 128 (≈ 82.7 µM) | >128 | >128 | MIC against S. aureus 6061 (S. aureus 6061): >128 µg/mL; MIC against MRSA 6313 (MRSA 6313): >128 µg/mL; MIC against MRSA 6381 (MRSA 6381): >128 µg/mL; MIC against A. baumannii 6838 (A. baumannii 6838): 128 µg/mL (≈ 82.7 µM); MIC against A. baumannii 6043 (A. baumannii 6043): 64 µg/mL (≈ 41.3 µM); MIC against A. baumannii ATCC 17978 (A. baumannii ATCC 17978): >128 µg/mL; MIC against P. aeruginosa ATCC 19660 (P. aeruginosa ATCC 19660): >128 µg/mL; MIC against P. aeruginosa 6186 (P. aeruginosa 6186): >128 µg/mL; MIC against P. aeruginosa ATCC 27853 (P. aeruginosa ATCC 27853): >128 µg/mL
CC[C@H](C)[C@H](NC(=O)[C@H](CCCN)NC(=O)[C@H](C)NC(=O)[C@H](CCCN)NC(=O)[C@H](CC(C)C)NC(=O)[C@H](CCCCN)NC(=O)[C@@H](NC(=O)[C@H](CCCCN)NC(=O)[C@@H](NC(=O)[C@H](CCCN)NC(=O)[C@H](C)NC(=O)[C@H](CCCN)NC(=O)[C@H](CC(C)C)NC(=O)[C@H](CCCN)NC(=O)[C@@H](N)Cc1ccccc1)[C@@H](C)CC)C(C)C)C(=O)N[C@@H](CCCN)C(=O)N[C@@H](CC(C)C)C(N)=O [RP555] (H-F[Orn]L[Orn]A[Orn]IKVKL[Orn]A[Orn]I[Orn]L-NH2) | 4 (≈ 2.09 µM) | 64 (≈ 33.5 µM) | 32 (≈ 16.7 µM) | 64 (≈ 33.5 µM) | 2 (≈ 1.05 µM) | 4 (≈ 2.09 µM) | >128 | 32 (≈ 16.7 µM) | 2 (≈ 1.05 µM) | 32 (≈ 16.7 µM) | 32 (≈ 16.7 µM) | 2 (≈ 1.05 µM) | 16 (≈ 8.37 µM) | 128 (≈ 66.9 µM) | 32 (≈ 16.7 µM) | 64 (≈ 33.5 µM) | 16 (≈ 8.37 µM) | 4 (≈ 2.09 µM) | 8 (≈ 4.18 µM) | 8 (≈ 4.18 µM) | MIC against S. aureus 6061 (S. aureus 6061): 16 µg/mL (≈ 8.37 µM); MIC against MRSA 6313 (MRSA 6313): 16 µg/mL (≈ 8.37 µM); MIC against MRSA 6381 (MRSA 6381): 16 µg/mL (≈ 8.37 µM); MIC against A. baumannii 6838 (A. baumannii 6838): 4 µg/mL (≈ 2.09 µM); MIC against A. baumannii 6043 (A. baumannii 6043): 16 µg/mL (≈ 8.37 µM); MIC against A. baumannii ATCC 17978 (A. baumannii ATCC 17978): 4 µg/mL (≈ 2.09 µM); MIC against P. aeruginosa ATCC 19660 (P. aeruginosa ATCC 19660): 8 µg/mL (≈ 4.18 µM); MIC against P. aeruginosa 6186 (P. aeruginosa 6186): 4 µg/mL (≈ 2.09 µM); MIC against P. aeruginosa ATCC 27853 (P. aeruginosa ATCC 27853): 4 µg/mL (≈ 2.09 µM)
OC(Cn1cncn1)(Cn1cncn1)c1ccc(F)cc1F [fluconazole, reference compound] |  |  |  |  |  |  |  |  |  |  |  |  |  |  |  |  |  |  |  |  | reduction in tissue candidiasis infection (in words) [10]: non-significant reduction
FKLRAKIKVRLRAKIKL [D4E1, reference compound] | 2 | 64 | 64 | 128 | 4 | 4 | 128 | 64 | 8 | 64 | 64 | 2 | 64 | 128 | 64 | 128 | 16 | 32 | 4 | 8 | MIC against S. aureus 6061 (S. aureus 6061): 8 µg/mL; MIC against MRSA 6313 (MRSA 6313): 8 µg/mL; MIC against MRSA 6381 (MRSA 6381): 8 µg/mL; MIC against A. baumannii 6838 (A. baumannii 6838): 8 µg/mL; MIC against A. baumannii 6043 (A. baumannii 6043): >128 µg/mL; MIC against A. baumannii ATCC 17978 (A. baumannii ATCC 17978): 16 µg/mL; MIC against P. aeruginosa ATCC 19660 (P. aeruginosa ATCC 19660): 32 µg/mL; MIC against P. aeruginosa 6186 (P. aeruginosa 6186): 16 µg/mL; MIC against P. aeruginosa ATCC 27853 (P. aeruginosa ATCC 27853): 16 µg/mL
